# ChEMBL document CHEMBL1145863, “Design and synthesis of dihydrofolate reductase inhibitors encompassing a bridging ester group. Evaluation in a mouse colitis model” (J Med Chem, 2003)
# Biological target: T1, Dihydrofolate reductase (Rattus norvegicus, UniProt Q920D2)
# T1 sequence (Q920D2 whole entry): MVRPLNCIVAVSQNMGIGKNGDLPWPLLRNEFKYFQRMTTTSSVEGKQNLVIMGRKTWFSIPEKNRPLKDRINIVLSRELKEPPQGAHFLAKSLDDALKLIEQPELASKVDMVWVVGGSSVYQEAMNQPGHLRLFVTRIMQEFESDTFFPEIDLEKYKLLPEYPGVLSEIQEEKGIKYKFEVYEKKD
# Experiment: Inhibition of rat liver Dihydrofolate reductase (rlDHFR)
row,Compound,IC50 [nM]
1,Nc1nc(N)c2cc(COC(=O)c3ccc(C(=O)N[C@@H](CCCC(=O)O)C(=O)O)cc3)ccc2n1,160
2,Nc1nc(N)c2cc(COC(=O)c3ccc(C(=O)N[C@H](CCC(=O)O)C(=O)O)cc3)ccc2n1,150
